Assay results as given in PMC11189555, “Aryl amino acetamides prevent Plasmodium falciparum ring development via targeting the lipid-transfer protein PfSTART1” (Nature Communications, 2024).

Test system: ring-stage parasites
Assay: Parasite reduction ratio assay
Type: cell-based, Plasmodium falciparum
Protocol: Parasite reduction ratio assay. This was performed as previously described 9,10.
Briefly, asynchronous ring -stage parasites at 0.5% parasitemia and 2% haematocrit were exposed to compounds at 10 x EC50 of growth for five days with daily drug renewal. After each 24 h, a well from each treatment group was taken and washed three times in complete RPMI and final volume adjusted to 2% haematocrit. The washed culture was then aliquoted into a 96 well U-bottom plate and a 1:3 serial dilution into fresh uninfected RBCs was performed with four technical replicates for each time point. Plates were maintained in normal culturing conditions: media was replaced, and fresh RBCs given 1-2 times a week for three weeks, after which parasite growth was measured via lactate dehydrogenase assays. The number of viable parasites was calculated using the formula xn-1 +1, where x is the dilution factor and n is the number of wells that contain parasite growth. The viable parasite value was then expressed in log units and parasite reduction ratio was calculated as a decrease in […]

CCN(CC)CCCC(C)Nc1ccnc2cc(Cl)ccc12 (centres unmarked) [CQ, chloroquine, reference compound]
killing profile (10xEC50: 75 nM CQ, 60 nM W-991): fast-acting | PRR (Replicate 1, PRR calculations): 4.528 | log(parasite viability) +1 (Replicate 1, T=1): 2.863 | Parasite viability (Replicate 1, T=1, 1:3 dilution): 729 | log(parasite viability) +1 (Replicate 1, T=2): 0.6021 | Parasite viability (Replicate 1, T=2, 1:3 dilution): 3 | log(parasite viability) +1 (Replicate 1, T=3): 0 | Parasite viability (Replicate 1, T=3, 1:3 dilution): 0 | log(parasite viability) +1 (Replicate 1, T=4): 0 | Parasite viability (Replicate 1, T=4, 1:3 dilution): 0 | log(parasite viability) +1 (Replicate 1, T=5): 0 | Parasite viability (Replicate 1, T=5, 1:3 dilution): 0 | log(parasite viability) +1 used in PRR calculations (Replicate 2, Hours 0): 5.248 | PRR (Replicate 2, PRR calculations): 2.861 | Parasite viability +1 (Replicate 2, T=1): 19684 | log(parasite viability) +1 (Replicate 2, T=1): 4.294 | Parasite viability (Replicate 2, T=1, 1:3 dilution): 19683 | Parasite viability +1 (Replicate 2, T=2): 10 | log(parasite viability) +1 (Replicate 2, T=2): 1 | Parasite viability (Replicate 2, T=2, 1:3 dilution): 9 | Parasite viability +1 (Replicate 2, T=3): 244 | log(parasite viability) +1 (Replicate 2, T=3): 2.387 | Parasite viability (Replicate 2, T=3, 1:3 dilution): 243 | Parasite viability +1 (Replicate 2, T=4): 82 | log(parasite viability) +1 (Replicate 2, T=4): 1.914 | Parasite viability (Replicate 2, T=4, 1:3 dilution): 81 | Parasite viability +1 (Replicate 2, T=5): 1 | log(parasite viability) +1 (Replicate 2, T=5): 0 | Parasite viability (Replicate 2, T=5, 1:3 dilution): 0 | log(parasite viability) +1 (replicate 3, 0 hours, start value (UT T=0) used in PRR calculations): 5.248 | Parasite viability (1:3 dilution) (replicate 3, T=1): 6561 | log(parasite viability) +1 (replicate 3, T=1): 3.817 | Parasite viability (1:3 dilution) (replicate 3, T=2): 9 | log(parasite viability) +1 (replicate 3, T=2 (48 hours in PRR calculations)): 1 | Parasite viability (1:3 dilution) (replicate 3, T=3): 0 | log(parasite viability) +1 (replicate 3, T=3 (72 hours in PRR calculations)): 0 | Parasite viability (1:3 dilution) (replicate 3, T=4): 0 | log(parasite viability) +1 (replicate 3, T=4): 0 | Parasite viability (1:3 dilution) (replicate 3, T=5): 0 | log(parasite viability) +1 (replicate 3, T=5 (120 hours in PRR calculations)): 0 | PRR (replicate 3, difference of log viability over 48 h (CQ 0-48 hours, W991 72-120 hours)): 4.248
